In ChEMBL document CHEMBL1641454, “6-Benzylamino 4-oxo-1,4-dihydro-1,8-naphthyridines and 4-oxo-1,4-dihydroquinolines as HIV integrase inhibitors” (Bioorg Med Chem Lett, 2011):

System: not listed separately
Experiment: Metabolic stability in human liver microsome assessed as compound remaining after 30 mins
Type: ADME
Conditions: liver microsomes, read-out: Stability

SMILES | remaining at 0.5 h [%]
COc1cc2c(cc1Cc1cccc(Cl)c1F)c(=O)c(C(=O)O)cn2[C@H](CO)C(C)C [ELVITEGRAVIR] | 38

System: not listed separately
Experiment: Plasma clearance in rat at 2 mg/kg, iv
Type: ADME, organism-based
Design: dose 2 mg/kg, route intravenous
Conditions: not given

SMILES | clearance [mL/min/kg]
COc1cc2c(cc1Cc1cccc(Cl)c1F)c(=O)c(C(=O)O)cn2[C@H](CO)C(C)C [ELVITEGRAVIR] | 3.83

System: not listed separately
Experiment: Volume of distribution in rat at 2 mg/kg, iv
Type: ADME, organism-based
Design: dose 2 mg/kg, route intravenous
Conditions: in vivo

SMILES | Vd [L/kg]
COc1cc2c(cc1Cc1cccc(Cl)c1F)c(=O)c(C(=O)O)cn2[C@H](CO)C(C)C [ELVITEGRAVIR] | 2.74

System: not listed separately
Experiment: Cmax in rat at 5 mg/kg, po
Type: ADME, organism-based
Design: dose 5 mg/kg, route oral
Conditions: in vivo

SMILES | Cmax [ng/mL]
COc1cc2c(cc1Cc1cccc(Cl)c1F)c(=O)c(C(=O)O)cn2[C@H](CO)C(C)C [ELVITEGRAVIR] | 1140

System: not listed separately
Experiment: AUC in rat at 5 mg/kg, po
Type: ADME, organism-based
Design: dose 5 mg/kg, route oral
Conditions: plasma

SMILES | AUC [ng·h/mL]
COc1cc2c(cc1Cc1cccc(Cl)c1F)c(=O)c(C(=O)O)cn2[C@H](CO)C(C)C [ELVITEGRAVIR] | 5630

System: not listed separately
Experiment: Half life in rat at 5 mg/kg, po
Type: ADME, organism-based
Design: dose 5 mg/kg, route oral
Conditions: in vivo

SMILES | half-life [h]
COc1cc2c(cc1Cc1cccc(Cl)c1F)c(=O)c(C(=O)O)cn2[C@H](CO)C(C)C [ELVITEGRAVIR] | 2.9

System: not listed separately
Experiment: Oral bioavailability in rat at 5 mg/kg
Type: ADME, organism-based
Conditions: in vivo

SMILES | bioavailability [%]
COc1cc2c(cc1Cc1cccc(Cl)c1F)c(=O)c(C(=O)O)cn2[C@H](CO)C(C)C [ELVITEGRAVIR] | 26

System: not listed separately
Experiment: Plasma clearance in Beagle dog at 1 mg/kg, iv
Type: ADME, organism-based, Canis lupus familiaris
Design: dose 1 mg/kg, route intravenous
Conditions: not given

SMILES | clearance [mL/min/kg]
COc1cc2c(cc1Cc1cccc(Cl)c1F)c(=O)c(C(=O)O)cn2[C@H](CO)C(C)C [ELVITEGRAVIR] | 10

System: not listed separately
Experiment: Volume of distribution in Beagle dog at 1 mg/kg, iv
Type: ADME, organism-based, Canis lupus familiaris
Design: dose 1 mg/kg, route intravenous
Conditions: in vivo

SMILES | Vd [L/kg]
COc1cc2c(cc1Cc1cccc(Cl)c1F)c(=O)c(C(=O)O)cn2[C@H](CO)C(C)C [ELVITEGRAVIR] | 2.38

System: not listed separately
Experiment: Half life in Beagle dog at 1 mg/kg, iv
Type: ADME, organism-based, Canis lupus familiaris
Design: dose 1 mg/kg, route intravenous
Conditions: in vivo

SMILES | half-life [h]
COc1cc2c(cc1Cc1cccc(Cl)c1F)c(=O)c(C(=O)O)cn2[C@H](CO)C(C)C [ELVITEGRAVIR] | 3.6

System: not listed separately
Experiment: Plasma clearance in rhesus monkey at 1 mg/kg, iv
Type: ADME, organism-based, Macaca mulatta
Design: dose 1 mg/kg, route intravenous
Conditions: not given

SMILES | clearance [mL/min/kg]
COc1cc2c(cc1Cc1cccc(Cl)c1F)c(=O)c(C(=O)O)cn2[C@H](CO)C(C)C [ELVITEGRAVIR] | 7.17

System: not listed separately
Experiment: Volume of distribution in rhesus monkey at 1 mg/kg, iv
Type: ADME, organism-based, Macaca mulatta
Design: dose 1 mg/kg, route intravenous
Conditions: in vivo

SMILES | Vd [L/kg]
COc1cc2c(cc1Cc1cccc(Cl)c1F)c(=O)c(C(=O)O)cn2[C@H](CO)C(C)C [ELVITEGRAVIR] | 1.99

System: not listed separately
Experiment: Half life in rhesus monkey at 1 mg/kg, iv
Type: ADME, organism-based, Macaca mulatta
Design: dose 1 mg/kg, route intravenous
Conditions: in vivo

SMILES | half-life [h]
COc1cc2c(cc1Cc1cccc(Cl)c1F)c(=O)c(C(=O)O)cn2[C@H](CO)C(C)C [ELVITEGRAVIR] | 3.2

System: Human immunodeficiency virus 1
Experiment: Antiviral activity against VSV-G protein pseudotyped HIV1 luciferase reporter virus in mixture of human HeLa/JC53 cells assessed as luminescence after 48 hrs
Type: functional, organism-based
Conditions: Human immunodeficiency virus 1, Hela-JC53, 48 h

SMILES | EC50 [nM]
CC(C)Oc1nc2c(cc1Cc1cccc(Cl)c1F)c(=O)c(C(=O)O)cn2[C@H](CO)C(C)(C)C | 16
COc1nc2c(cc1Cc1cccc(Cl)c1F)c(=O)c(C(=O)O)cn2[C@@H](C)CO | 177
COc1nc2c(cc1Nc1ccc(F)cc1)c(=O)c(C(=O)O)cn2[C@H](CO)C(C)C | > 2500
COc1nc(Cc2cccc(Cl)c2F)cc2c(=O)c(C(=O)O)cn([C@H](CO)C(C)C)c12 | 291
COc1nc2c(cc1NCc1cccc(Cl)c1F)c(=O)c(C(=O)O)cn2[C@H](CO)C(C)C | 490
CCCC[C@@H](CO)n1cc(C(=O)O)c(=O)c2cc(Cc3cccc(Cl)c3F)c(OC)nc21 | 20
CCC[C@@H](CO)n1cc(C(=O)O)c(=O)c2cc(Cc3cccc(Cl)c3F)c(OC)nc21 | 180
COc1nc2c(cc1Nc1ccc(Cl)c(F)c1)c(=O)c(C(=O)O)cn2[C@H](CO)C(C)C | > 2500
CC(C)[C@@H](CO)n1cc(C(=O)O)c(=O)c2nc(Cc3cccc(Cl)c3F)ccc21 | > 2500
CC[C@@H](CO)n1cc(C(=O)O)c(=O)c2cc(Cc3cccc(Cl)c3F)c(OC)nc21 | 40
COc1nc2c(cc1NCc1ccc(F)cc1)c(=O)c(C(=O)O)cn2[C@H](CO)C(C)(C)C | 150
COc1nc2c(cc1Nc1cccc(Cl)c1F)c(=O)c(C(=O)O)cn2[C@H](CO)C(C)C | > 2500
COc1cc2c(cc1Cc1cccc(Cl)c1F)c(=O)c(C(=O)O)cn2[C@H](CO)C(C)C [ELVITEGRAVIR] | 0.7
COc1nc2c(cc1NCc1cccc(F)c1)c(=O)c(C(=O)O)cn2[C@H](CO)C(C)C | 1460

System: Human immunodeficiency virus 1
Experiment: Antiviral activity against VSV-G protein pseudotyped HIV1 luciferase reporter virus in mixture of human HeLa/JC53 cells assessed as luminescence after 48 hrs in presence of 40% human serum
Type: functional, organism-based
Conditions: Human immunodeficiency virus 1, Hela-JC53, 48 h

SMILES | EC50 [nM]
CC(C)Oc1nc2c(cc1Cc1cccc(Cl)c1F)c(=O)c(C(=O)O)cn2[C@H](CO)C(C)(C)C | 195
COc1nc2c(cc1Cc1cccc(Cl)c1F)c(=O)c(C(=O)O)cn2[C@@H](C)CO | 1050
COc1nc(Cc2cccc(Cl)c2F)cc2c(=O)c(C(=O)O)cn([C@H](CO)C(C)C)c12 | 1770
COc1nc2c(cc1NCc1cccc(Cl)c1F)c(=O)c(C(=O)O)cn2[C@H](CO)C(C)C | 2680
CCCC[C@@H](CO)n1cc(C(=O)O)c(=O)c2cc(Cc3cccc(Cl)c3F)c(OC)nc21 | 245
CCC[C@@H](CO)n1cc(C(=O)O)c(=O)c2cc(Cc3cccc(Cl)c3F)c(OC)nc21 | 1020
CC[C@@H](CO)n1cc(C(=O)O)c(=O)c2cc(Cc3cccc(Cl)c3F)c(OC)nc21 | 307
COc1nc2c(cc1NCc1ccc(F)cc1)c(=O)c(C(=O)O)cn2[C@H](CO)C(C)(C)C | 385
COc1cc2c(cc1Cc1cccc(Cl)c1F)c(=O)c(C(=O)O)cn2[C@H](CO)C(C)C [ELVITEGRAVIR] | 36
COc1nc2c(cc1NCc1cccc(F)c1)c(=O)c(C(=O)O)cn2[C@H](CO)C(C)C | 1590
